pEC50, pIC50: −log10 of the molar value.
Assays:
[1] = system: p21 induction in HCT116 cells; assay: p21 induction in HCT116 cells; assay type: cell-based; settings: Homo sapiens, HCT-116, 24 h, HCT116 cells, 24 h compound incubation; read-out: P21_EC50
Outline: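 EC50 from non-linear curve fit of p21 immunofluorescence (800 nm), with GAPDH (700 nm) read alongside. DMSO and a reference WRN inhibitor served as low and high controls. Cells (2,000/well) got 11 compound concentrations in duplicate for 24 h at 37 °C.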

[2] = molecular target: WRN (BV08), human Werner helicase (Uniprot Q14191, amino acids 517-1235 with L1074F point mutation) (Homo sapiens (Human), UniProt Q14191, L1074F); assay: WRN (BV08) ADP-Glo assay; assay type: biochemical; settings: class symbols A-E, read-out: ADP-Glo_hWRN_IC50
Chain of WRN (BV08), human Werner helicase (Uniprot Q14191, amino acids 517-1235 with L1074F point mutation) (Q14191 other isoform, or with tags, fused parts or gaps L1074F (already in the parent)): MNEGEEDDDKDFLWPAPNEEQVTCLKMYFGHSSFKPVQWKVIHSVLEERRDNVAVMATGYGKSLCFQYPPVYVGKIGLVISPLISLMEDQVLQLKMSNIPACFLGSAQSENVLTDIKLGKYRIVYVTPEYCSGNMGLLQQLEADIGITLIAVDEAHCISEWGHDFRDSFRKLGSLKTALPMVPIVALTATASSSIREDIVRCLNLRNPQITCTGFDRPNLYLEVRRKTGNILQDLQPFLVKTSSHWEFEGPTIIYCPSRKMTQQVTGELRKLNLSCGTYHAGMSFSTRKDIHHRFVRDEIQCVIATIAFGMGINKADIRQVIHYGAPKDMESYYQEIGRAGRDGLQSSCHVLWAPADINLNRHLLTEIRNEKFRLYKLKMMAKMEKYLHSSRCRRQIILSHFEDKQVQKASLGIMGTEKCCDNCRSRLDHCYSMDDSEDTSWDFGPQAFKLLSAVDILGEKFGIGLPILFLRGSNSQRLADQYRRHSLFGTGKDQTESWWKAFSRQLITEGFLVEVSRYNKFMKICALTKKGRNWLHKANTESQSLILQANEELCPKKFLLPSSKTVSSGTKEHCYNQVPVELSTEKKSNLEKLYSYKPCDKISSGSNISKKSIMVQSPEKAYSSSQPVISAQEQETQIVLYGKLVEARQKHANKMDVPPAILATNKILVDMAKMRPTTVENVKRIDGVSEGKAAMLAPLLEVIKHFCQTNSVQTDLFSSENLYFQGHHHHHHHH

pEC50 [1]	pIC50 [2]	SMILES
5.30 to 5.70	7.30 to 8.30	CCc1c(N2CCN(C(=O)c3ncnc(C)c3O)CC2)c(=O)c2nc(N(C3CC3)C3CC3)cnc2n1CC(=O)Nc1ccc(C(F)(F)F)cc1Cl [I-179, N-[2-chloro-4-(trifluoromethyl)phenyl]-2-[2-(dicyclopropylamino)-6-ethyl-7-[4-(5-hydroxy-6-methylpyrimidine-4-carbonyl)piperazin-1-yl]-8-oxo-5H,8H-pyrido[2,3-b]pyrazin-5-yl]acetamide]
5.70 to 6.30	7.30 to 8.30	CCc1c(N2CCN(C(=O)c3ncnc(C)c3O)CC2)c(=O)c2nc(C=C3CC(C)(O)C3)cnc2n1CC(=O)Nc1ccc(C(F)(F)F)cc1Cl (centres unmarked) [I-180, N-[2-chloro-4-(trifluoromethyl)phenyl]-2-{6-ethyl-2-[(3-hydroxy-3-methylcyclobutylidene)methyl]-7-[4-(5-hydroxy-6-methylpyrimidine-4-carbonyl)piperazin-1-yl]-8-oxo-5H,8H-pyrido[2,3-b]pyrazin-5-yl}acetamide]
> 6.30	≥ 8.30	CCc1c(N2CCN(C(=O)c3ncnc(C)c3O)[C@H]3CC[C@@H]32)c(=O)c2nc(OC)cnc2n1CC(=O)Nc1ccc(C(F)(F)F)cc1Cl [I-182, N-[2-chloro-4-(trifluoromethyl)phenyl]-2-{6-ethyl-7-[(1S,6S)-5-(5-hydroxy-6-methylpyrimidine-4-carbonyl)-2,5-diazabicyclo[4.2.0]octan-2-yl]-2-methoxy-8-oxo-5H,8H-pyrido[2,3-b]pyrazin-5-yl} acetamide]
< 5.30	7.30 to 8.30	CCc1c(N2CCN(C(=O)c3c(O)cnnc3OC)[C@H]3CC[C@@H]32)c(=O)c2nc(N(C)C)cnc2n1CC(=O)Nc1ccc(C(F)(F)F)cc1Cl [I-183, N-[2-chloro-4-(trifluoromethyl)phenyl]-2-[2-(dimethylamino)-6-ethyl-7-[(1S,6S)-5-(5-hydroxy-3-methoxypyridazine-4-carbonyl)-2,5-diazabicyclo[4.2.0]octan-2-yl]-8-oxo-5H,8H-pyrido[2,3-b]pyrazin-5-yl]acetamide]
5.30 to 5.70	7.30 to 8.30	CCc1c(N2CCN(C(=O)c3cnn(C)c3)[C@H]3CC[C@@H]32)c(=O)c2nc(N(C)C)cnc2n1CC(=O)Nc1ccc(C(F)(F)F)cc1Cl [I-184, N-[2-chloro-4-(trifluoromethyl)phenyl]-2-[2-(dimethylamino)-6-ethyl-7-[(1S,6S)-5-(1-methyl-1H-pyrazole-4-carbonyl)-2,5-diazabicyclo[4.2.0]octan-2-yl]-8-oxo-5H,8H-pyrido[2,3-b]pyrazin-5-yl]acetamide]
> 6.30	7.30 to 8.30	CCc1c(N2CCN(C(=O)c3ncnc(C)c3O)C[C@@H]2C)c(=O)c2nc(N(C)C)cnc2n1CC(=O)Nc1ccc(S(F)(F)(F)(F)F)cc1Cl [I-185, N-[2-chloro-4-(pentafluoro-lambda6-sulfanyl)phenyl]-2-[2-(dimethylamino)-6-ethyl-7-[(2S)-4-(5-hydroxy-6-methylpyrimidine-4-carbonyl)-2-methylpiperazin-1-yl]-8-oxo-5H,8H-pyrido[2,3-b]pyrazin-5-yl]acetamide]
5.30 to 5.70	7.30 to 8.30	CCc1c(N2CCN(C(=O)c3ncnc(C)c3O)CC2)c(=O)c2nc(NCC3CC3)cnc2n1CC(=O)Nc1ccc(C(F)(F)F)cc1Cl [I-186, N-[2-chloro-4-(trifluoromethyl)phenyl]-2-{2-[(cyclopropylmethyl)amino]-6-ethyl-7-[4-(5-hydroxy-6-methylpyrimidine-4-carbonyl)piperazin-1-yl]-8-oxo-5H,8H-pyrido[2,3-b]pyrazin-5-yl}acetamide]
5.70 to 6.30	7.30 to 8.30	CCc1c(N2CCN(C(=O)c3ncnc(C)c3O)C[C@@H]2C)c(=O)c2nc(N3CCC3)cnc2n1CC(=O)Nc1ccc(C(F)(F)F)cc1Cl [I-187, 2-[2-(azetidin-1-yl)-6-ethyl-7-[(2S)-4-(5-hydroxy-6-methylpyrimidine-4-carbonyl)-2-methylpiperazin-1-yl]-8-oxo-5H,8H-pyrido[2,3-b]pyrazin-5-yl]-N-[2-chloro-4-(trifluoromethyl)phenyl]acetamide]
5.70 to 6.30	7.30 to 8.30	CCc1c(N2CCN(C(=O)c3ncnc(C)c3O)C[C@@H]2C)c(=O)c2nc(N3CC[C@H]3COC)cnc2n1CC(=O)Nc1ccc(C(F)(F)F)cc1Cl [I-188, N-[2-chloro-4-(trifluoromethyl)phenyl]-2-{6-ethyl-7-[(2S)-4-(5-hydroxy-6-methylpyrimidine-4-carbonyl)-2-methylpiperazin-1-yl]-2-[(2S)-2-(methoxymethyl)azetidin-1-yl]-8-oxo-5H,8H-pyrido[2,3-b]pyrazin-5-yl}acetamide]
5.70 to 6.30	7.30 to 8.30	CCc1c(N2CCN(C(=O)c3ncnc(C)c3O)C[C@@H]2C)c(=O)c2nc(N3CC[C@@H]3COC)cnc2n1CC(=O)Nc1ccc(C(F)(F)F)cc1Cl [I-189, N-[2-chloro-4-(trifluoromethyl)phenyl]-2-{6-ethyl-7-[(2S)-4-(5-hydroxy-6-methylpyrimidine-4-carbonyl)-2-methylpiperazin-1-yl]-2-[(2R)-2-(methoxymethyl)azetidin-1-yl]-8-oxo-5H,8H-pyrido[2,3-b]pyrazin-5-yl}acetamide]
> 6.30	7.30 to 8.30	CCc1c(N2CCN(C(=O)c3ncnc(C)c3O)C[C@@H]2C)c(=O)c2nc(N3CCC3)cnc2n1CC(=O)Nc1ccc(S(F)(F)(F)(F)F)cc1Cl [I-190, 2-[2-(azetidin-1-yl)-6-ethyl-7-[(2S)-4-(5-hydroxy-6-methylpyrimidine-4-carbonyl)-2-methylpiperazin-1-yl]-8-oxo-5H,8H-pyrido[2,3-b]pyrazin-5-yl]-N-[2-chloro-4-(pentafluoro-lambda6-sulfanyl)phenyl]acetamide]
5.70 to 6.30	7.30 to 8.30	CCc1c(N2CCN(C(=O)c3ncnc(C)c3O)C[C@@H]2CC)c(=O)c2nc(N(C)C)cnc2n1CC(=O)Nc1ccc(C(F)(F)F)cc1Cl [I-191, N-[2-chloro-4-(trifluoromethyl)phenyl]-2-[2-(dimethylamino)-6-ethyl-7-[(2S)-2-ethyl-4-(5-hydroxy-6-methylpyrimidine-4-carbonyl)piperazin-1-yl]-8-oxo-5H,8H-pyrido[2,3-b]pyrazin-5-yl]acetamide]
> 6.30	≥ 8.30	CCc1c(N2CCN(C(=O)c3ncc4c(c3O)CCO4)CC2)c(=O)c2nc(N(C)C3CC3)cnc2n1CC(=O)Nc1ccc(C(F)(F)F)cc1Cl [I-194, N-[2-chloro-4-(trifluoromethyl)phenyl]-2-{2-[cyclopropyl(methyl)amino]-6-ethyl-7-(4-{4-hydroxy-2H,3H-furo[2,3-c]pyridine-5-carbonyl}piperazin-1-yl)-8-oxo-5H,8H-pyrido[2,3-b]pyrazin-5-yl}acetamide]
5.30 to 5.70	7.30 to 8.30	CCc1c(N2CCN(C(=O)c3ncnc(C)c3O)CC2)c(=O)c2nc(OC3CC3)cnc2n1CC(=O)Nc1ccc(C(F)(F)F)cc1Cl [I-195, N-[2-chloro-4-(trifluoromethyl)phenyl]-2-{2-cyclopropoxy-6-ethyl-7-[4-(5-hydroxy-6-methylpyrimidine-4-carbonyl)piperazin-1-yl]-8-oxo-5H,8H-pyrido[2,3-b]pyrazin-5-yl}acetamide]
< 5.30	7.00 to 7.30	CCc1c(N2CCN(C(=O)c3ncnc(C)c3O)[C@@H](C(F)F)C2)c(=O)c2nc(N(C)C)cnc2n1CC(=O)Nc1ccc(C(F)(F)F)cc1Cl [I-197, N-[2-chloro-4-(trifluoromethyl)phenyl]-2-{7-[(3R)-3-(difluoromethyl)-4-(5-hydroxy-6-methylpyrimidine-4-carbonyl)piperazin-1-yl]-2-(dimethylamino)-6-ethyl-8-oxo-5H,8H-pyrido[2,3-b]pyrazin-5-yl}acetamide]
> 6.30	7.30 to 8.30	CCc1c(N2CCN(C(=O)c3ncnc(C)c3O)[C@H]3CC[C@@H]32)c(=O)c2nc(N(C)C)cnc2n1CC(=O)Nc1ccc(OC(F)(F)F)cc1Cl [I-199, N-[2-chloro-4-(trifluoromethoxy)phenyl]-2-[2-(dimethylamino)-6-ethyl-7-[(1S,6S)-5-(5-hydroxy-6-methylpyrimidine-4-carbonyl)-2,5-diazabicyclo[4.2.0]octan-2-yl]-8-oxo-5H,8H-pyrido[2,3-b]pyrazin-5-yl]acetamide]
> 6.30	7.30 to 8.30	CCc1c(N2CCN(C(=O)c3ncnc(C)c3O)[C@H]3CC[C@@H]32)c(=O)c2nc(N(C)C)cnc2n1CC(=O)Nc1ccc(S(F)(F)(F)(F)F)cc1Cl [I-200, N-[2-chloro-4-(pentafluoro-lambda6-sulfanyl)phenyl]-2-[2-(dimethylamino)-6-ethyl-7-[(1S,6S)-5-(5-hydroxy-6-methylpyrimidine-4-carbonyl)-2,5-diazabicyclo[4.2.0]octan-2-yl]-8-oxo-5H,8H-pyrido[2,3-b]pyrazin-5-yl]acetamide]
5.30 to 5.70	7.30 to 8.30	CCc1c(N2CCN(C(=O)c3ncnc(C)c3O)CC2)c(=O)c2nc(-n3cccn3)cnc2n1CC(=O)Nc1ccc(C(F)(F)F)cc1Cl [I-201, N-[2-chloro-4-(trifluoromethyl)phenyl]-2-{6-ethyl-7-[4-(5-hydroxy-6-methylpyrimidine-4-carbonyl)piperazin-1-yl]-8-oxo-2-(1H-pyrazol-1-yl)-5H,8H-pyrido[2,3-b]pyrazin-5-yl}acetamide]

SMILES	pEC50 [1]	pIC50 [2]
CCc1c(N2CCN(C(=O)c3ncnc(C)c3O)[C@H]3CC[C@@H]32)c(=O)c2nc(OC3CCC3)cnc2n1CC(=O)Nc1ccc(C(F)(F)F)cc1Cl [I-181, N-[2-chloro-4-(trifluoromethyl)phenyl]-2-{2-cyclobutoxy-6-ethyl-7-[(1S,6S)-5-(5-hydroxy-6-methylpyrimidine-4-carbonyl)-2,5-diazabicyclo[4.2.0]octan-2-yl]-8-oxo-5H,8H-pyrido[2,3-b]pyrazin-5-yl}acetamide]	> 6.30	7.30 to 8.30
